# Source: patent US4582824A, “Method for inhibiting activities of platelet activating factor” (Takeda Chemical Industries, Ltd., priority 1983, dated 1986)
# How the values were obtained:
# [1] = test system: PAF-induced respiratory (airway) stenosis; assay: PAF-inhibiting activity in respiratory stenosis; assay type: in vivo, guinea pig (Hartley); details: PAF 0.3 μg/kg i.v., control group pretreated with saline; mean±S.D., 6 cases
# Protocol: Male and female Hartley strain guinea pigs weighing about 400 g were used. Under urethane anesthesia (1.5 g/kg, i.p.), each animal was immobilized in supine position and one shank of a tracheal cannula (of 4-shank type) was inserted into the airway, with two of the remaining three shanks being connected to a Harvard Apparatus rodent respirator and the remaining one shank to a bronchospasm transducer (Ugo-basile Model 7020). At an air volume of 5 to 7 ml per cycle, an air supply frequency of 70 times/min. and a lung loading pressure of 10 cm H2 O, the volume of overflowing air was recorded through the transducer on a rectigraph (Rectigraph-8S, Sanei Sokki K.K.). After gallamine triethodide (1 mg/kg, i.v.) treatment, […] of histamine 2HCl was intravenously administered to examine the response of the animal. When 0.3 μg/kg of PAF was intravenously administered to control group intravenously pretreated with physiological saline, a miximum airway stenosis was noted after 30 minutes and the amount of stenosis taking a complete stenosis as 100% was 72.8±4.3 (mean±S.D., for 6 cases). The compound of Production Example 2, when intravenously administered 2 minutes before at the dose levels of 0.3 and 1 mg/kg, suppressed the above response by PAF by 49% and 82%, respectively.
# [2] = test system: circulatory shock due to PAF; assay: Inhibitory activity against circulatory shock due to PAF in anesthetized dogs; assay type: in vivo, mongrel dogs; details: for CO (percent of value prior to PAF) / CoF (percent of value prior to PAF) / DBP (percent of value prior to PAF) / HR (percent of value prior to PAF) / LVP (percent of value prior to PAF) / MBP (percent of value prior to PAF) / SBP (percent of value prior to PAF) / max dp/dt (row head is a drawing; percent of value prior to PAF): PAF 1.0 μg/kg i.v. alone
# Protocol: Male and female mongrel dogs weighing 9 to 13 kg were used. Under pentobarital sodium ([…], i.v.) anesthesia and supportive respiration, a thoracotomy was performed at the left fourth interspace. The origin of the left coronary circumflex and the aortic arch were released, an electromagnetic probe was attached to each, and the coronary blood flow (CoF) and cardiac output (CO) were measured. Moreover, a polyethylene cannula was inserted from the apex of the heart into the left ventricle and the left ventricular pressure (LVP) was measured by means of a pressure transducer. In addition, its first-order differential dp/dt was determined by way of a differential circuit. The mean blood pressure (MBP) was continuously recorded on an ink-writing polygraph through a pressure transducer via a cannula inserted into the right femoral artery and the heart rate (HR) was similarly recorded via a tachometer driven by mean blood pressure pulse waves. PAF and the compound of Production Example 2 were respectively dissolved in physiological saline and administered via a cannula into the left femoral vein. After 1.0 μg/kg of PAF was intravenously administered and the respective parameters recovered to normal, the compound of Production Example 2 (10 mg/kg) was intravenously administered. After 10 minutes, 1.0 μg/kg of PAF was intravenously administered to estimate the anti-PAF activity of the compound of Production Example 2. All values are in percents relative to the values prior to PAF administration.
# [3] = test system: platelet aggregation; details: compared with ADP and TXA2; cited from earlier work
# [4] = test system: respiratory stenosis; details: compared with all the known compounds; cited from earlier work
structure (smiles),measurement,setting,value
"CCCCCCCCCCCCCCCCOCC(COP(=O)([O-])OCC[N+](C)(C)C)OC(C)=O (stereo not drawn) [PAF, 1-O-alkyl-2-acetyl-sn-glyceryl-3-phosphorylcholine]",amount of stenosis taking a complete stenosis as 100%,[1],72.8±4.3%
same,decrease of CO in words,[2]; PAF 1.0 μg/kg i.v.,particularly remarkable
same,heart rate (HR) change in words,[2]; PAF 1.0 μg/kg i.v.,only a slight decrease
same,time before the preadministration values were recovered,[2]; PAF 1.0 μg/kg i.v.,60 min
same,CO (percent of value prior to PAF),[2]; 0.5 min,93 ± 13%
same,CoF (percent of value prior to PAF),[2]; 0.5 min,75 ± 3%
same,DBP (percent of value prior to PAF),[2]; 0.5 min,58 ± 3%
same,HR (percent of value prior to PAF),[2]; 0.5 min,96 ± 8%
same,LVP (percent of value prior to PAF),[2]; 0.5 min,81 ± 1%
same,MBP (percent of value prior to PAF),[2]; 0.5 min,62 ± 4%
same,SBP (percent of value prior to PAF),[2]; 0.5 min,70 ± 5%
same,max dp/dt (row head is a drawing; percent of value prior to PAF),[2]; 0.5 min,76 ± 8%
same,CO (percent of value prior to PAF),[2]; 1 min,33 ± 3%
same,CoF (percent of value prior to PAF),[2]; 1 min,77 ± 3%
same,DBP (percent of value prior to PAF),[2]; 1 min,47 ± 3%
same,HR (percent of value prior to PAF),[2]; 1 min,95 ± 8%
same,LVP (percent of value prior to PAF),[2]; 1 min,59 ± 7%
same,MBP (percent of value prior to PAF),[2]; 1 min,49 ± 5%
same,SBP (percent of value prior to PAF),[2]; 1 min,52 ± 5%
same,max dp/dt (row head is a drawing; percent of value prior to PAF),[2]; 1 min,50 ± 3%
same,CO (percent of value prior to PAF),[2]; 5 min,35 ± 7%
same,CoF (percent of value prior to PAF),[2]; 5 min,56 ± 2%
same,DBP (percent of value prior to PAF),[2]; 5 min,67 ± 12%
same,HR (percent of value prior to PAF),[2]; 5 min,89 ± 3%
same,LVP (percent of value prior to PAF),[2]; 5 min,62 ± 6%
same,MBP (percent of value prior to PAF),[2]; 5 min,63 ± 11%
same,SBP (percent of value prior to PAF),[2]; 5 min,59 ± 9%
same,max dp/dt (row head is a drawing; percent of value prior to PAF),[2]; 5 min,54 ± 7%
same,platelet aggregation activity in words,[3],greater activity at lower concentrations
same,activity in respiratory stenosis assay in words,[4],highest activity of all the known compounds
